# Values quoted from earlier work, collected in patent US10413538B2, “Administration of karenitecin for the treatment of platinum and/or taxane chemotherapy-resistant or -refractory advanced ovarian cancer” (priority 2013, dated 2019).
# What was measured:
# [1] = system: resistant subline of cells containing less than 4% of the topoisomerase I activity; conditions: subline with <4% topoisomerase I activity; cited from earlier work
# [2] = system: MDR-expressing sublines; conditions: P-glycoprotein-associated MDR phenotype; cited from earlier work
# [3] = human, in vivo; cited from earlier work
Structure (SMILES),resistance of MDR-expressing sublines relative to parental wild-type cells [2] [fold],also measured
CC[C@@]1(O)C(=O)OCc2c1cc1n(c2=O)Cc2cc3ccccc3nc2-1 [camptothecin],–,decrease in sensitivity of resistant subline versus wild-type parental cells [1]: 1000 fold
COc1cccc2c1C(=O)c1c(O)c3c(c(O)c1C2=O)C[C@@](O)(C(=O)CO)C[C@@H]3O[C@H]1C[C@H](N)[C@H](O)[C@H](C)O1 [doxorubicin],200,–
Nc1ccn([C@@H]2O[C@H](CO)[C@@H](O)C2(F)F)c(=O)n1 [Gemcitabine],–,patients with neutropenia [3]: up to 90%
COc1cc([C@@H]2c3cc4c(cc3[C@@H](O[C@@H]3O[C@@H]5CO[C@@H](C)O[C@H]5[C@H](O)[C@H]3O)[C@H]3COC(=O)[C@H]23)OCO4)cc(OC)c1O [etoposide],200,–
